Where a name gives a salt, the structure may show the parent alone. Blank lines part the entries; values can stand above or below the compound they belong to.
Experiments:
human MCHR1 [1] = molecular target: T1, human MCHR1 (Homo sapiens, UniProt Q99705); assay: 125I-MCH competitive binding assay (scintillation proximity), membranes of AV-12 cells transfected with human MCHR1; conditions: Ki calculated from IC50 by Cheng-Prusoff, average
T1 construct: expressed in transfected cells; host or cells: AV-12 cells (clone 43), membranes
T1 sequence (Q99705 whole entry): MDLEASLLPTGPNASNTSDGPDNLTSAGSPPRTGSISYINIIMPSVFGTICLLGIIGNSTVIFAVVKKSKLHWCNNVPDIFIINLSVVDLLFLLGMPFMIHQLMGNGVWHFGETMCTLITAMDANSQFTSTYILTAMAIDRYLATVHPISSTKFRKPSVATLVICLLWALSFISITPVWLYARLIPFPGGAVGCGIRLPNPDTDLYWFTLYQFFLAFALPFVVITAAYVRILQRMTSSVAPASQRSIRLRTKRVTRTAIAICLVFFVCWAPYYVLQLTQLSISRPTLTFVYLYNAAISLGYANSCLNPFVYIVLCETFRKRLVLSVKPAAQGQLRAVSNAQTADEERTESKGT
From the text: (§1) One of skill in the art is able to perform both the ^125I-MCH binding and functional GTPγ^35S binding assays using the procedures herein or procedures disclosed in the art. For binding assay, see for example, Macdonald, D., et al., 2000. Molecular characterization of the melanin-concentrating hormone/receptor complex: identification of critical residues involved in binding and activation. Mol Pharmacol 58, 217-225. For GTPgammaS functional assay, see for example, Gao, X., et al., 2004. Europium-labeled melanin-concentrating hormone analogues: ligands for measuring binding to melanin-concentrating hormone receptors 1 and 2. Anal Biochem 328, 187-195.
Binding of compounds to MCHR1 is assessed in a competitive binding assay employing ^125I-MCH, compound of the invention, and clone 43 membranes using scintillation proximity techniques. IC50 values (defined as the concentration of test compound required to reduce specific binding of ^125I-MCH by 50%) are determined by fitting the concentration-response data to a 4-parameter model (max response, min response, Hill coefficient, IC50) using a spreadsheet.

[2] = In vivo efficacy in diet-induced obese male Long-Evans rats, oral gavage once a day for 3 days; conditions: 10 mg/Kg oral
Procedure: Animals are housed individually in a temperature regulated room (24° C.) with a reverse 12 hour light/dark cycle (dark 10:00/22:00). Water and food (Teklad 95217, Harlan, Wis.) were available ad libitum. Compounds are administered orally in a vehicle that consists of 10% acacia and 0.15% saccharin in water once a day before onset of the dark period for 3 days. Food intake and body weight are measured daily for the 3 day period. The compound of Example 29 produces an average body weight reduction of about 7 grams at a dose of 10 mg/Kg when compared to vehicle control.

human MCHR1 [3] = molecular target: T1, human MCHR1; assay: Functional GTPγ35S binding assay: inhibition of MCH-stimulated GTPγ35S binding to membranes of AV-12 cells expressing human MCHR1; type: biochemical; conditions: Kb from IC50 by modified Cheng-Prusoff (Leff and Dougal)
From the text: as §1
Functional antagonism of MCH activity is assessed by measuring the ability of a test compound to inhibit MCH-stimulated binding of GTPγ^35S to membranes isolated from AV-12 cells expressing the human MCHR1 using a scintillation proximity assay. […] After verifying competitive antagonism by Schild analysis, Kb values are calculated from the IC50 values for each antagonist and the EC50 for MCH (determined independently) using a modification of the Cheng-Prusoff approximation as described by Leff and Dougal (Trends Pharmacol. Sci. (1993) 14: 110-112). […]

- Ki (human MCHR1 [1]): ~4 nM
Structure (SMILES): COc1cc(N2CCc3nc(-c4ccc(Cl)cc4)sc3C2=O)ccc1OC1CN(C2CC2)C1 [Example 37, 2-(4-Chloro-phenyl)-5-[4-(1-cyclopropyl-azetidin-3-yloxy)-3-methoxy-phenyl]-6,7-dihydro-5H-thiazolo[5,4-c]pyridin-4-one, hydrochloride salt]

Structure (SMILES): COc1cc(N2CCc3nc(-c4ccc(Cl)cc4)sc3C2=O)ccc1OC1CN(C2CCC2)C1.Cl [Example 29, 2-(4-Chloro-phenyl)-5-[4-(l-cyclobutyl-azetidin-3-yloxy)-3-methoxy-phenyl]-6,7-dihydro-5H-thiazolo[5,4-c]pyridin-4-one, hydrochloride salt]
- average body weight reduction when compared to vehicle control [2]: about 7 grams

- Kb (human MCHR1 [3]): ~6 nM
Structure (SMILES): COc1cc(N2CCc3nc(-c4ccc(Cl)cc4)sc3C2=O)ccc1OC1CN(C(C)C)C1 [Example 28, 2-(4-Chloro-phenyl)-5-[4-(1-isopropyl-azetidin-3-yloxy)-3-methoxy-phenyl]-6,7-dihydro-5H-thiazolo[5,4-c]pyridin-4-one, hydrochloride salt]

Reference: patent US8049013B2, “5- [4-(azetidin-3-yloxy)-phenyl]-2-phenyl-5H-thiazolo[5,4-C] pyridin-4-one derivatives and their use as MCH receptor antagonists” (Eli Lilly and Company, priority 2006, dated 2011)
